US10694752B2 (priority 2016, dated 2020)
Several values for one entry are separate records, joined by “and”; a condition that tells them apart may be missing. Identical values can stand only once.

Assays:
[1] = system: wild type Chlorella sorokiniana; assay: Growth of wild type Chlorella sorokiniana in the presence of propiconazole (OD at 750 nm); format: cell-based; conditions: 10 μM propiconazole; FIG. 1
Protocol: (§1) Chlorella sorokiniana cells (Wild type) and propiconazole resistant mutants of Chlorella species (PcZ-2) were inoculated at 0.1-0.15 OD@750 nm (each set in triplicates). To verify the effect of methanol (propiconazole was dissolved in methanol), one set was treated with 0.1% methanol. One set of flasks in triplicate of Wild type and PcZ-2 mutants were inoculated with and without 10 μM propiconazole. After inoculation flasks were kept in 12 h light/12 hour dark cycles of white light in an incubator shaker at 100 rpm. The temperature was 28° C., 70% humidity and 2% ambient CO2. 3 mL sample was removed each day, to determine the Optical density (OD) of the culture at 750 nm. The results obtained are as illustrated in FIG. 1.
(§2) FIG. 1 illustrates a graph of the growth comparison between wild type Chlorella sorokiniana and propiconazole resistant Chlorella sorokiniana mutant PcZ-2, in the presence of propiconazole, wherein A represents wild type Chlorella sorokiniana in the absence of propiconazole, B represents wild type Chlorella sorokiniana grown in the presence of 0.1% methanol, C represents wild type Chlorella sorokiniana grown in the presence of 10 μM propiconazole, D represents PcZ-2 grown in the absence of propiconazole, E represents PcZ-2 grown in the presence of 0.1% methanol, and F represents PcZ-2 grown in the presence of 10 μM propiconazole.

[2] = system: propiconazole resistant Chlorella sorokiniana mutant PcZ-2 (CCAP 211/134); assay: Growth of propiconazole resistant mutant PcZ-2 in the presence of propiconazole (OD at 750 nm); format: cell-based; conditions: 10 μM propiconazole; for Average % increase PcZ-2 + 10 uM PcZ: average of triplicates, compared with wild type without propiconazole; for % increase PcZ-2 + 10 μM PcZ: growth of PcZ-2 compared with wild type without propiconazole, individual replicates, 28° C., listed as PcZ
Protocol: as §1, §2

CCCC1COC(Cn2cncn2)(c2ccc(Cl)cc2Cl)O1 (centres unmarked) [propiconazole, Propiconazole]
growth of wild type Chlorella sorokiniana culture in the presence of propiconazole [1]: crashes after a few days | growth of PcZ-2 in the presence of propiconazole ([2]; FIG. 1): capable of growing | Average % increase PcZ-2 + 10 uM PcZ ([2]; day 4): 62.66% | % increase PcZ-2 + 10 μM PcZ ([2]; day 4): 52.73% and 66.67% and 68.57% | Average % increase PcZ-2 + 10 uM PcZ ([2]; day 6): 20.01% | % increase PcZ-2 + 10 μM PcZ ([2]; day 6): 13.33% and 28.96% and 17.75% | Average % increase PcZ-2 + 10 uM PcZ ([2]; day 7): 21.07% | % increase PcZ-2 + 10 μM PcZ ([2]; day 7): 10.64% and 29.37% and 23.19%
